Test results as given in PubChem BioAssay AID330 (DTP/NCI, 2004).
Values joined by “and” are separate entries in the source; they are usually repeats but may differ in a detail not shown here. Equal values may be shown once. Inconclusive results and toxic doses are left out. The calls were made as follows: active = survival T/C of 150% or more; inactive = T/C below 125% in these data. Peptide text beside a SMILES is read from it.

System: P388 leukemia ip, CD2F1 mice, survival T/C
Assay: NCI In Vivo Anticancer Drug Screen. Data for tumor model P388 Leukemia (intraperitoneal) in CD2F1 (CDF1) mice
Details: endpoint: median survival time, higher = longer survival
In short: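 Mice carrying the transplanted tumor received test compound or vehicle. Survival was recorded in each group, and the value is the treated-group measurement divided by that of the vehicle-treated control group.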

[1] = dose: 12.5 mg/kg/injection, schedule: Q01DX009 (ip), vehicle: saline with Tween-80
[2] = dose: 25.0 mg/kg/injection, schedule: Q01DX009 (ip), vehicle: saline with Tween-80
[3] = dose: 50.0 mg/kg/injection, schedule: Q01DX009 (ip), vehicle: saline with Tween-80
[4] = dose: 100.0 mg/kg/injection, schedule: Q04DX003 (ip), vehicle: saline with Tween-80
[5] = dose: 50.0 mg/kg/injection, schedule: Q01DX005 (ip), vehicle: saline with Tween-80
[6] = dose: 100.0 mg/kg/injection, schedule: Q01DX005 (ip), vehicle: saline with Tween-80
[7] = dose: 200.0 mg/kg/injection, schedule: Q01DX005 (ip), vehicle: saline with Tween-80
[8] = dose: 50.0 mg/kg/injection, schedule: Q01DX009 (ip), vehicle: saline
[9] = dose: 100.0 mg/kg/injection, schedule: Q01DX009 (ip), vehicle: saline
[10] = dose: 100.0 mg/kg/injection, schedule: Q01DX009 (ip), vehicle: saline with Tween-80
[11] = dose: 15.0 mg/kg/injection, schedule: Q01DX005 (ip), vehicle: Klucel (hydroxypropylcellulose) (HPC)
[12] = dose: 30.0 mg/kg/injection, schedule: Q01DX005 (ip), vehicle: Klucel (hydroxypropylcellulose) (HPC)
[13] = dose: 60.0 mg/kg/injection, schedule: Q01DX005 (ip), vehicle: Klucel (hydroxypropylcellulose) (HPC)

Measured: T/C

C=CCNC(=S)Nc1ccc(OC(=O)Nc2ccc(Cl)c(Cl)c2)cc1
inactive: dose: 6.25 mg/kg/injection, schedule: Q01DX009 (ip), vehicle: saline with Tween-80 102 % of control | [1] 96 % of control | [2] 104 % of control | [3] 98 % of control

COc1ccc(/C=N/Nc2ccc([N+](=O)[O-])cc2[N+](=O)[O-])cc1
inactive: dose: 50.0 mg/kg/injection, schedule: Q04DX003 (ip), vehicle: saline with Tween-80 93 % of control | [4] 94 % of control | dose: 200.0 mg/kg/injection, schedule: Q04DX003 (ip), vehicle: saline with Tween-80 88 % of control | dose: 400.0 mg/kg/injection, schedule: Q04DX003 (ip), vehicle: saline with Tween-80 91 % of control

CC(C)CC(N)C(=O)NC(C)C(=O)NC(CC(C)C)C(=O)O (stereo not drawn) (H-Leu-Ala-Leu-OH; configuration not given here)
inactive: dose: 25.0 mg/kg/injection, schedule: Q01DX005 (ip), vehicle: saline 101 % of control | dose: 50.0 mg/kg/injection, schedule: Q01DX005 (ip), vehicle: saline 102 % of control | dose: 100.0 mg/kg/injection, schedule: Q01DX005 (ip), vehicle: saline 101 % of control | dose: 200.0 mg/kg/injection, schedule: Q01DX005 (ip), vehicle: saline 100 % of control

C/C(CC(O)(c1ccccc1)c1ccccc1)=N/Sc1ccccc1
inactive: dose: 100.0 mg/kg/injection, schedule: Q04DX003 (ip), vehicle: Klucel (hydroxypropylcellulose) (HPC) 100 % of control | dose: 200.0 mg/kg/injection, schedule: Q04DX003 (ip), vehicle: Klucel (hydroxypropylcellulose) (HPC) 92 % of control | dose: 400.0 mg/kg/injection, schedule: Q04DX003 (ip), vehicle: Klucel (hydroxypropylcellulose) (HPC) 94 % of control

Nc1c(S(=O)(=O)O)cc(Br)c2c1C(=O)c1ccccc1C2=O
inactive: [5] 98 % of control | [6] 98 % of control | [7] 93 % of control

CO/N=C1\CC[C@@]2(C)[C@@H](CC[C@@H]3[C@@H]2CC[C@]2(C)C([C@H](C)CCCC(C)C)CC[C@@H]32)C1 (stereo partly drawn)
inactive: [5] 97 % of control | [6] 95 % of control | [7] 100 % of control

Clc1cccc(Cl)c1CSc1nc2ccccc2n2cccc12
inactive: dose: 50.0 mg/kg/injection, schedule: Q01DX009 (ip), vehicle: Klucel (hydroxypropylcellulose) (HPC) 102 % of control | dose: 100.0 mg/kg/injection, schedule: Q01DX009 (ip), vehicle: Klucel (hydroxypropylcellulose) (HPC) 105 % of control | dose: 200.0 mg/kg/injection, schedule: Q01DX009 (ip), vehicle: Klucel (hydroxypropylcellulose) (HPC) 105 % of control

CCOP(=S)(N1CC1C)N1CC1C (stereo not drawn)
inactive: [3] 120 % of control | dose: 66.0 mg/kg/injection, schedule: Q04DX003 (ip), vehicle: saline with Tween-80 100 % of control | [4] 109 % of control

CN(C)c1ccc2c(Cl)ccnc2c1
inactive: dose: 12.5 mg/kg/injection, schedule: Q01DX005 (ip), vehicle: saline with Tween-80 100 % of control | dose: 25.0 mg/kg/injection, schedule: Q01DX005 (ip), vehicle: saline with Tween-80 103 % of control | [5] 103 % of control and 86 % of control

Cn1cccc1/C=N/N1CC(=O)N(c2ccc(Cl)cc2)CC1=O
inactive: [5] 110 % of control | [6] 106 % of control | [7] 88 % of control

CN1C(c2ccccc2Cl)C2CCCC(C2O)C1c1ccccc1Cl (stereo not drawn)
inactive: dose: 100.0 mg/kg/injection, schedule: Q04DX003 (ip), vehicle: saline 100 % of control | dose: 200.0 mg/kg/injection, schedule: Q04DX003 (ip), vehicle: saline 100 % of control | dose: 400.0 mg/kg/injection, schedule: Q04DX003 (ip), vehicle: saline 95 % of control

CC(O)CC(c1ccccc1)C(C(=O)O)c1ccccc1 (stereo not drawn)
inactive: [8] 108 % of control | [9] 101 % of control | dose: 200.0 mg/kg/injection, schedule: Q01DX009 (ip), vehicle: saline 95 % of control

CCOC(=O)NCP(Cl)(CNC(=O)OCC)(CNC(=O)OCC)CNC(=O)OCC
inactive: [8] 99 % of control | [9] 86 % of control

COc1cccc2c1cc([N+](=O)[O-])c1c(C(=O)O)cc3c(c12)OCO3
inactive: dose: 2.5 mg/kg/injection, schedule: Q01DX009 (ip), vehicle: Klucel (hydroxypropylcellulose) (HPC) 118 % of control | dose: 2.5 mg/kg/injection, schedule: Q01DX009 (ip), vehicle: saline 108 % of control | dose: 5.0 mg/kg/injection, schedule: Q01DX009 (ip), vehicle: Klucel (hydroxypropylcellulose) (HPC) 118 % of control | dose: 5.0 mg/kg/injection, schedule: Q01DX009 (ip), vehicle: saline 117 % of control | dose: 10.0 mg/kg/injection, schedule: Q01DX009 (ip), vehicle: saline 117 % of control

COc1cc2c3c(n(C)c(=O)c2cc1OC)-c1cc2c(cc1C3=O)OCO2
inactive: dose: 2.0 mg/kg/injection, schedule: Q01DX009 (ip), vehicle: distilled water + Tween-80 98 % of control | dose: 4.0 mg/kg/injection, schedule: Q01DX009 (ip), vehicle: distilled water + Tween-80 100 % of control | dose: 8.0 mg/kg/injection, schedule: Q01DX009 (ip), vehicle: distilled water + Tween-80 107 % of control | dose: 16.0 mg/kg/injection, schedule: Q01DX009 (ip), vehicle: distilled water + Tween-80 98 % of control | dose: 32.0 mg/kg/injection, schedule: Q01DX009 (ip), vehicle: distilled water + Tween-80 100 % of control | dose: 64.0 mg/kg/injection, schedule: Q01DX009 (ip), vehicle: distilled water + Tween-80 99 % of control and 109 % of control | dose: 128.0 mg/kg/injection, schedule: Q01DX009 (ip), vehicle: distilled water + Tween-80 111 % of control and 123 % of control | dose: 256.0 mg/kg/injection, schedule: Q01DX009 (ip), vehicle: distilled water + Tween-80 100 % of control and 92 % of control

Cc1ccc(S(=O)(=O)NC(=O)N(C)NC(=O)C(=O)NCc2ccco2)cc1
inactive: [3] 103 % of control | [10] 103 % of control | dose: 200.0 mg/kg/injection, schedule: Q01DX009 (ip), vehicle: saline with Tween-80 99 % of control

Cc1cc(Cl)ccc1NC(=O)Oc1nc2ccccc2o1
inactive: [1] 104 % of control and 96 % of control | [2] 99 % of control and 101 % of control | [3] 111 % of control and 96 % of control | [10] 101 % of control and 112 % of control

Cc1ccc(S(=O)(=O)N(Cl)Cl)cc1
inactive: dose: 6.25 mg/kg/injection, schedule: Q01DX009 (ip), vehicle: Klucel (hydroxypropylcellulose) (HPC) 111 % of control | dose: 12.5 mg/kg/injection, schedule: Q01DX009 (ip), vehicle: Klucel (hydroxypropylcellulose) (HPC) 99 % of control | dose: 25.0 mg/kg/injection, schedule: Q01DX009 (ip), vehicle: Klucel (hydroxypropylcellulose) (HPC) 108 % of control

CC(C)c1cc(C(=O)O)c(O)c(C(C)C)c1.CC(C)c1cc(C(=O)O)c(O)c(C(C)C)c1.[Mn]
inactive: [11] 104 % of control and 106 % of control | dose: 15.0 mg/kg/injection, schedule: Q01DX005 (ip), vehicle: other 101 % of control | [12] 110 % of control and 114 % of control | dose: 30.0 mg/kg/injection, schedule: Q01DX005 (ip), vehicle: other 105 % of control and 109 % of control | [13] 116 % of control and 117 % of control and 120 % of control | dose: 60.0 mg/kg/injection, schedule: Q01DX005 (ip), vehicle: other 114 % of control and 95 % of control | dose: 120.0 mg/kg/injection, schedule: Q01DX005 (ip), vehicle: Klucel (hydroxypropylcellulose) (HPC) 112 % of control and 116 % of control | dose: 120.0 mg/kg/injection, schedule: Q01DX005 (ip), vehicle: other 114 % of control and 87 % of control | dose: 240.0 mg/kg/injection, schedule: Q01DX005 (ip), vehicle: other 100 % of control

O=C(C=C(C(F)(F)F)C(F)(F)F)c1c2ccccc2cc2ccccc12
inactive: dose: 0.78 mg/kg/injection, schedule: Q01DX009 (ip), vehicle: DMSO 91 % of control | dose: 1.56 mg/kg/injection, schedule: Q01DX009 (ip), vehicle: DMSO 98 % of control | dose: 3.12 mg/kg/injection, schedule: Q01DX009 (ip), vehicle: DMSO 87 % of control and 89 % of control

CC1C2C=CC1C(c1c3ccc(=O)c(O)c-3oc3c(O)c(O)ccc13)C2C(=O)O (stereo not drawn)
inactive: dose: 60.0 mg/kg/injection, schedule: Q01DX005 (ip), vehicle: saline with Tween-80 94 % of control | dose: 120.0 mg/kg/injection, schedule: Q01DX005 (ip), vehicle: saline with Tween-80 87 % of control | dose: 240.0 mg/kg/injection, schedule: Q01DX005 (ip), vehicle: saline with Tween-80 91 % of control

CSC1=CC(=NCc2ccccc2)CC(C)(C)S1
inactive: [11] 110 % of control | [12] 104 % of control | [13] 101 % of control and 105 % of control

N=c1ccn2c(n1)OC1C(OP(=O)(O)O)C(CO)OC12 (stereo not drawn)
active: dose: 177.0 mg/kg/injection, schedule: Q04DX003 (ip), vehicle: saline with Tween-80 154 % of control
